Tests used:
[1] = target: Tyrosine-protein kinase Fes/Fps (Homo sapiens) (UniProt P07332); assay: Residual activity of FES at 1 uM by microplate scintillation counting
[2] = tested on: T1, Receptor-type tyrosine-protein kinase FLT3 (Homo sapiens), P36888 [D835Y]; assay: Residual activity of FLT3 D835Y mutant at 1 uM by microplate scintillation counting
T1 sequence (whole entry): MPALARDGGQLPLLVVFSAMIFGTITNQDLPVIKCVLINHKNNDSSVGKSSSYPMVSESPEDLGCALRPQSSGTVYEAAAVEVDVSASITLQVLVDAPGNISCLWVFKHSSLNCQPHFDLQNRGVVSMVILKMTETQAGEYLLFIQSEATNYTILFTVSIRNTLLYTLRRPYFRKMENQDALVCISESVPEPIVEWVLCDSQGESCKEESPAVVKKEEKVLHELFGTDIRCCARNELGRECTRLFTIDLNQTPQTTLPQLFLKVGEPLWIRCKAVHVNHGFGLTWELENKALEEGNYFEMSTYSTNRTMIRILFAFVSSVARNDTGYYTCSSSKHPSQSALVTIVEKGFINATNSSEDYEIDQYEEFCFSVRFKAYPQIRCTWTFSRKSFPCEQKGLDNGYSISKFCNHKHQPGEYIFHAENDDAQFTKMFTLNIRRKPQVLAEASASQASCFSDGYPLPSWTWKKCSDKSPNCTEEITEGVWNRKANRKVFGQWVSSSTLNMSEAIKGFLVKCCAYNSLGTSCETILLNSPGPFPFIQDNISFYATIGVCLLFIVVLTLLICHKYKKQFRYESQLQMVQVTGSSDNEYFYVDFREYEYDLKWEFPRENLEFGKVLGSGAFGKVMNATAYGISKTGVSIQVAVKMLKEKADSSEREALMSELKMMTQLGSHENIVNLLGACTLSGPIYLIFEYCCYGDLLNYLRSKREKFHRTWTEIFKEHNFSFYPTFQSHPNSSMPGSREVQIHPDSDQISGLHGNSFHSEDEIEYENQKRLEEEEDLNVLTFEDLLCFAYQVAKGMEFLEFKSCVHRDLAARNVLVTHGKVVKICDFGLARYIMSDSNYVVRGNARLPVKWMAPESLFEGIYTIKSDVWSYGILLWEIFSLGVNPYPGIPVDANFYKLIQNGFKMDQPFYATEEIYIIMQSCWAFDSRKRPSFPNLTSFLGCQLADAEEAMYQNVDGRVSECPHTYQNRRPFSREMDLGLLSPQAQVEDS

[3] = target: T2, Serine/threonine-protein kinase Nek1 (Homo sapiens) (UniProt Q96PY6); assay: Residual activity of NEK1 at 1 uM by microplate scintillation counting
T2 sequence (whole entry): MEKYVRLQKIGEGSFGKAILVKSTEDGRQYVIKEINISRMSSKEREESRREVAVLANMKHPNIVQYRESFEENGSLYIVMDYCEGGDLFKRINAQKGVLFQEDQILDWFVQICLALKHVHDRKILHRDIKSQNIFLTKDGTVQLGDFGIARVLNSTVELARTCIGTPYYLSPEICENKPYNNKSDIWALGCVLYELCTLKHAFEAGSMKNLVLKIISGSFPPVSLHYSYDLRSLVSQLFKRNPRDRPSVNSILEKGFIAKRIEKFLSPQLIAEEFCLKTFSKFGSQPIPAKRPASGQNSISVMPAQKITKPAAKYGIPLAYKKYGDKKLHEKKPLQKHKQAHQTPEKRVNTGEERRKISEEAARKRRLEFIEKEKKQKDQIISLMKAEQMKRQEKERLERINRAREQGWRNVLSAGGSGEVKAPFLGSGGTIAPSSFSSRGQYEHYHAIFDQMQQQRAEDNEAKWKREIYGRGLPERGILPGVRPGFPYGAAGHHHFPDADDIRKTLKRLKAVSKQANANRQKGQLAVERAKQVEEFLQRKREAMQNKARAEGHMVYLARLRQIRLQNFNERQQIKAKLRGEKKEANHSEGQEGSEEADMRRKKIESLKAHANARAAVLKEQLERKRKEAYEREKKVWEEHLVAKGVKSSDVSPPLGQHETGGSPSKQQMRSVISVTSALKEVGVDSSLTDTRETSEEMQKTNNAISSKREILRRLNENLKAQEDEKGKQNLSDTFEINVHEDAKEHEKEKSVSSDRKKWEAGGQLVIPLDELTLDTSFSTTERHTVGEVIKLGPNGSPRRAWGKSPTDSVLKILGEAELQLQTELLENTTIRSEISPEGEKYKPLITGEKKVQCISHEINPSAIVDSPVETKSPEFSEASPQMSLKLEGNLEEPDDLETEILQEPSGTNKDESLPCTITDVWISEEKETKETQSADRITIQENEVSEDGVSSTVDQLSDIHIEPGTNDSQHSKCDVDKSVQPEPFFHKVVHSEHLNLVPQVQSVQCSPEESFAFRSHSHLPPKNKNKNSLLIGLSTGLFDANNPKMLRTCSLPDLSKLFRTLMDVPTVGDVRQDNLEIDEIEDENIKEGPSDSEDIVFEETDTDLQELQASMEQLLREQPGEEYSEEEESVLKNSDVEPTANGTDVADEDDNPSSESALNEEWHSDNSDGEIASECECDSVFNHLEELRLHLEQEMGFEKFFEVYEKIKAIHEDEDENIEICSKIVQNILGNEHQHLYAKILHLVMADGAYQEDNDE

[4] = target: Ribosomal protein S6 kinase alpha-4 (Homo sapiens) (UniProt O75676); assay: Residual activity of RPS6KA4 at 1 uM by microplate scintillation counting
Sequence of Ribosomal protein S6 kinase alpha-4 (Homo sapiens) (O75676 whole entry, looked up): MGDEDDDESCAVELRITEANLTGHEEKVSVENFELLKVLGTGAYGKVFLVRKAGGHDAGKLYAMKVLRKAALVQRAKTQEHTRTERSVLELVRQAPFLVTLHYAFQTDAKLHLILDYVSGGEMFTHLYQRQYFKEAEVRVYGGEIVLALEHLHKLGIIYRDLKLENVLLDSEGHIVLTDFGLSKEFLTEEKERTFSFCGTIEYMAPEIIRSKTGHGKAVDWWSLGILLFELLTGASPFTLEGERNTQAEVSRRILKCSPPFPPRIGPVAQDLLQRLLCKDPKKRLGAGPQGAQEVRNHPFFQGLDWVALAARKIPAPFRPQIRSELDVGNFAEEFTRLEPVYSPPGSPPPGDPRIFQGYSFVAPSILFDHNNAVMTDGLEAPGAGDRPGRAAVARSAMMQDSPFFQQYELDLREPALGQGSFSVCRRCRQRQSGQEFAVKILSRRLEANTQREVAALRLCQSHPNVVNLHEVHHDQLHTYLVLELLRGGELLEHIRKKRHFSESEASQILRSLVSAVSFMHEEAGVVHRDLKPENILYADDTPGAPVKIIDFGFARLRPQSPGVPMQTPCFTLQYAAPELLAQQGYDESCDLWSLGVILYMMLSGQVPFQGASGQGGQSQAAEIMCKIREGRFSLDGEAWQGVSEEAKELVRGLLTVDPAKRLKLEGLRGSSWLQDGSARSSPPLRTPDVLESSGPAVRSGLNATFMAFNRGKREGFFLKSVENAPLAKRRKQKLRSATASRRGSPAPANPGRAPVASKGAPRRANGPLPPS

[5] = target: T3, Serine/threonine-protein kinase NLK (Homo sapiens) (UniProt Q9UBE8); assay: Residual activity of NLK at 10 uM by microplate scintillation counting
T3 sequence (whole entry): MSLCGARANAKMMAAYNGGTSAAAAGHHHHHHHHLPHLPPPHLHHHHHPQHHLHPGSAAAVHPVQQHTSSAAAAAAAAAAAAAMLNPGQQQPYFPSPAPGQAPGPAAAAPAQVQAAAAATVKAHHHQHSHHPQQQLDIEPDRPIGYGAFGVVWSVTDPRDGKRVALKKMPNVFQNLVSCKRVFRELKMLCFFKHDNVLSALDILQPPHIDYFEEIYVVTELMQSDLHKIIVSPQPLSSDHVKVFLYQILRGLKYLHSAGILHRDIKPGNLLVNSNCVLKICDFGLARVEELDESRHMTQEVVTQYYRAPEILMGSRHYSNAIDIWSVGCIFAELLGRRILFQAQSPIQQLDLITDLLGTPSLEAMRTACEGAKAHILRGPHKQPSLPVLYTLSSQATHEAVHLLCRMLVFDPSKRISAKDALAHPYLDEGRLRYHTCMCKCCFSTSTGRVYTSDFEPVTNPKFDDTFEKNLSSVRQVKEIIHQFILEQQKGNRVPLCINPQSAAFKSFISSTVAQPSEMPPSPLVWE

[6] = target: Protein kinase C delta type (Homo sapiens) (UniProt Q05655); assay: Residual activity of PKCdelta at 10 uM by microplate scintillation counting
Sequence of Protein kinase C delta type (Homo sapiens) (Q05655 whole entry, looked up, canonical isoform): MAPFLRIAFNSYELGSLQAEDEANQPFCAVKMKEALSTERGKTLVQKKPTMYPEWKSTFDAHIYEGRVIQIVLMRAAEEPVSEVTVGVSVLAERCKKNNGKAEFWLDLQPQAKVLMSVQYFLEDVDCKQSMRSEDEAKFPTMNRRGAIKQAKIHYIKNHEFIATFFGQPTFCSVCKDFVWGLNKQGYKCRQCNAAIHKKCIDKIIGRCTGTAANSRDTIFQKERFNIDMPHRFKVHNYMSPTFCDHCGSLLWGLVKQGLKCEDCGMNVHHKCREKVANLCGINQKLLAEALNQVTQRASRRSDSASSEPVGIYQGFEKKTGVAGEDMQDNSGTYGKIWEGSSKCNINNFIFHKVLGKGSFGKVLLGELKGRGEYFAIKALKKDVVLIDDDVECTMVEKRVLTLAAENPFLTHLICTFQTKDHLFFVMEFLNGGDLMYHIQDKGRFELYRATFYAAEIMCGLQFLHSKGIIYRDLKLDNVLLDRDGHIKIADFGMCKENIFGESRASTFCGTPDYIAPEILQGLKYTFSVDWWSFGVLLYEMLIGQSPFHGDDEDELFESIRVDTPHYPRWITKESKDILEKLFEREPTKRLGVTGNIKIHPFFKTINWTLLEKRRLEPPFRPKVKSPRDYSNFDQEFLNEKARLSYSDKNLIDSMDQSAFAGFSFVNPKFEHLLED

[7] = target: Casein kinase I isoform epsilon (Homo sapiens) (UniProt P49674); assay: Residual activity of CK1epsilon at 0.1 uM by microplate scintillation counting
Sequence of Casein kinase I isoform epsilon (Homo sapiens) (P49674 whole entry, looked up, canonical isoform): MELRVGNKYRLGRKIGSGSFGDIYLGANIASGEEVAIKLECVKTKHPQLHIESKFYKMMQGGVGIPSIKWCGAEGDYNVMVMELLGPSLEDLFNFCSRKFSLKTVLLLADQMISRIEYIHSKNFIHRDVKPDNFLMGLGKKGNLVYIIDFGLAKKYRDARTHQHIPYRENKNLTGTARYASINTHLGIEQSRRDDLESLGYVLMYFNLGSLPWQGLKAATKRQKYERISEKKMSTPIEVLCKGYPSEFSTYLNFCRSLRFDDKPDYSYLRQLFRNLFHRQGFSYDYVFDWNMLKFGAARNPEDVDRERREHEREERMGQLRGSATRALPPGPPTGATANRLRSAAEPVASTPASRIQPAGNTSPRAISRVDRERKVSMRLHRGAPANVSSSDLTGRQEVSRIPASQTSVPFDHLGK

Sequence of Tyrosine-protein kinase Fes/Fps (Homo sapiens) (P07332 whole entry): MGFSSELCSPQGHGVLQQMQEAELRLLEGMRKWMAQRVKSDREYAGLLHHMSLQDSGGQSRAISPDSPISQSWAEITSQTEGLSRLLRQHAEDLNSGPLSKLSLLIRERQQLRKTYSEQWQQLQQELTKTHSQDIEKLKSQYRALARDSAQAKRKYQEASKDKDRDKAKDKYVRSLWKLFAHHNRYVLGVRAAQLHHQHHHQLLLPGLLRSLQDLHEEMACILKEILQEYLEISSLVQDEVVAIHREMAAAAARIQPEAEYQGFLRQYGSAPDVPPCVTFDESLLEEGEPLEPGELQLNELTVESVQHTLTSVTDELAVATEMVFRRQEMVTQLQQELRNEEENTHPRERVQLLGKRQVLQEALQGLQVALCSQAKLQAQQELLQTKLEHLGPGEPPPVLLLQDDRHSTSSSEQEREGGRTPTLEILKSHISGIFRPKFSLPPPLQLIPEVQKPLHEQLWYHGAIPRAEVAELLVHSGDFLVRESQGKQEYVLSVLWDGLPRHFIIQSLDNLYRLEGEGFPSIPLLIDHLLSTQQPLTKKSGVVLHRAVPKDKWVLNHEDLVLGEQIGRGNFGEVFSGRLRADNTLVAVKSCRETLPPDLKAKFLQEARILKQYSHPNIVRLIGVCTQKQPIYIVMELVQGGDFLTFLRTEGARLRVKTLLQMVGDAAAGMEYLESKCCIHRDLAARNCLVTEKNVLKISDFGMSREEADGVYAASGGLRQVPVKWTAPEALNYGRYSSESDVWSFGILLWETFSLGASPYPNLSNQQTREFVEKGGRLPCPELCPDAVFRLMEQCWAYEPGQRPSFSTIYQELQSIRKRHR

| residual activity [1] [%] | residual activity [2] [%] | residual activity [3] [%] | residual activity [4] [%] | residual activity [5] [%] | residual activity [6] [%] | residual activity [7] [%] | Structure (SMILES) |
| --- | --- | --- | --- | --- | --- | --- | --- |
| 123 | 90 | 85 | 86 | 90 | 72 | 89 | COc1cc2c(Oc3ccc(-c4nc5ccccc5s4)cc3)ncnc2cc1OCCCN1CCCC1 |
| 105 | 95 | 85 | 86 | 113 | 86 | 80 | COc1cc2c(Oc3ccc(-c4nc5ccccc5s4)cc3)ncnc2cc1OCCCN1CCN(C)CC1 |
| 112 | 78 | 94 | 87 | 114 | 86 | 79 | COc1cc2c(Oc3ccc(-c4nc5ccccc5s4)cc3F)ncnc2cc1OCCCN1CCN(C)CC1 |
